{"source": "patent US12415839B2", "about": "“IgE epitope-like peptides and uses thereof” (Univerza v Ljubljani, priority 2018, dated 2025)"}
{"tested_on": "IgE of peanut allergic patients", "assay": "Immunodot assay with sera of peanut allergic patients", "format": "binding, human", "settings": "peptide-pIII fusion proteins spotted on nitrocellulose, patient sera diluted 1:10, FIG. 3", "description": "Three selected IgE epitope-like peptides (ELP 2, ELP 5, ELP 6) were extracted as recombinant fusions with bacteriophage minor coat protein pIII from the periplasm of host bacteria with osmotic shock. Two target-unrelated control peptides also fused to protein pIII (binders to streptavidin and human leptin) were extracted in the same way and served as negative controls (C1, C2). Briefly, E. coli host bacteria were infected with individual phage clones and grown for 2 hours at 37° C. with agitation. Bacteria pellets were spun down at 5000×g for 10 min and resuspended in 1 ml of an ice-cold solution consisting of 20% sucrose, 200 mM Tris-HCl pH 8.0 and 1 mM EDTA supplemented with protease inhibitor cocktail (EZBlock™, BioVision, San Francisco, USA) at a dilution of 1:200. After 1 h incubation on ice with occasional stirring supernatants were harvested by centrifugation at 12000×g for 20 minutes at 4° C. Resulting periplasmic extracts containing […] fusion proteins were concentrated (4-5 fold) and sucrose buffer exchanged for PBS by ultrafiltration with 10 kDa cut-off membrane (Microsep Advance Centrifugal Device, Pall Corporation, New York, USA). For immunoprecipitation of each selected peptide, 20 μg of affinity purified rabbit IgG against Ara h 2 (INDOOR Biotechnologies, Charlottesville, Virginia, USA) were covalently coupled to 1 mg of Dynabeads M-280 Tosylactivated™ (Thermo Fisher Scientific) according to manufacturer's protocol. Control peptides were immunoprecipitated in the same way using 10 μg of anti-human leptin antibody (R and D Systems Cat #MAB398 RRID:AB_2136056) coupled to 1 mg of Dynabeads M-280 Tosylactivated™ in the case of peptide with the affinity toward human leptin and 0.5 mg of streptavidin-coupled beads (Dynabeads™ MyOne™ Streptavidin T1, Thermofisher Scientific) in the case of peptide with the affinity towards streptavidin. […]"}
{"substance": "DHPRFNRDNDVA (IgE epitope-like peptide) [ELP 2]", "binding to IgE of peanut allergic patients": "bind to patients' IgE"}
{"substance": "DHPRFST (IgE epitope-like peptide) [ELP 6]", "binding to IgE of peanut allergic patients": "bind to patients' IgE"}
{"substance": "DHPRYGP (IgE epitope-like peptide) [ELP 5]", "binding to IgE of peanut allergic patients": "bind to patients' IgE"}
